Reference: patent EP3290412A1, “HIV-1 NUCLEOCAPSID INHIBITORS” (Università degli Studi di Siena, priority 2016, dated 2018)
Marks after values point to notes of the source that are not given here.

What was measured:
ARP clone 7400 (NRTI) = experiment: BiCycle assay, resistant viral strain; type: cell-based, HIV-1; settings: IC50 resistant strain / IC50 wild type NL4-3, BiCycle Assay
Experimental: BiCycle Assay is cell based assay allowing the evaluation of the antiviral activity of HIV-1 inhibitors on the whole replication cycle of HIV-1. The assay consists in a first round of infection of the T-cell line MT-2 followed by infection of TZM-bl cells. MT-2 cells were seeded at a concentration of 50,000 cells/well in a 96-well plate and infected with the HIV-1 reference strain NL4-3 in presence of five-fold dilutions of the investigational compounds. After 72 hours, 50 µl of supernatant from each well, containing the virus produced in the first round of infection, were used to infect TZM-bl cells seeded in a 96-plate well at a concentration of 30,000 cells/well. Two days later, cells were lysed adding 40 µl of Glo Lysis Buffer (Promega) to each well for 5 minutes, then 40 µl of Brighy-Glo Luciferase Reagent (Promega) were added to each well for relative luminescence units (RLU) counting using Glo-Max Multi Detection System (Promega). RLU values from each well were elaborated using the GraphPad v5.0 software to calculate the IC50 of each compound.
The antiviral activity of some of the compounds listed in Table 3 was further evaluated determining the IC50 with viruses carrying resistant mutations that reduce the susceptibility to drugs currently employed in clinical practice to treat HIV infection. The resistant viruses were obtained through the NIH AIDS Reagent Program (www.aidsreagent.org) and have been already characterized by the Phenosense Assay (Monogram Biosciences), considered as the reference assay for phenotypic investigation of HIV drug resistance due to its large application in clinical trials.
IC50 values of resistant viral strains were determined by using the BiCycle Assay as previously described. The results of the analysis are summarized in Table 6, where fold change values are calculated as the ratio between the IC50 values of resistant HIV-1 strains and the IC50 value of the wild type reference HIV-1 strain NL4-3. Table 6. Fold change values of resistant viral strains

[1] = system: NIH Catalogue Number: 11845; settings: cited from earlier work
[2] = system: NIH Catalogue Number: 11842; settings: cited from earlier work

| Compound | Fold change 7400 (NRTI) (ARP clone 7400 (NRTI)) | further results |
| --- | --- | --- |
| Cc1cccnc1-c1nc(O)c(O)c(C(=O)N[C@H](C)C2CCCCC2)n1 [Compound 23, (R)-N-(1-cyclohexylethyl)-5,6-dihydroxy-2-(3-methylpyridin-2-yl)pyrimidine-4-carboxamide] | 0.7 | – |
| C[C@@H](NC(=O)c1nc(-c2nccc3ccccc23)nc(O)c1O)C1CCCCC1 [Compound 31, (R)-N-(1-cyclohexylethyl)-5,6-dihydroxy-2-(isoquinolin-1-yl)pyrimidine-4-carboxamide] | 0.7 | – |
| COc1ccnc(-c2nc(O)c(O)c(C(=O)N[C@H](C)C3CCCCC3)n2)c1 [Compound 28, (R)-N-(1-cyclohexylethyl)-5,6-dihydroxy-2-(4-methoxypyridin-2-yl)pyrimidine-4-carboxamide] | 0.8 | – |
| Cc1nnc(C(=O)NC(C)(C)c2nc(C(=O)NCc3ccc(F)cc3)c(O)c(=O)n2C)o1 [Raltegravir™, Raltegravir, reference compound] | – | Level of resistance ([1]; INI resistant strain 11845): High resistance; Fold change ([1]; strain 11845, resistant virus IC50 to wild-type reference virus IC50 ratio, cut-off in brackets): >200 (1.5^b); Level of resistance ([2]; INI resistant strain 11842): High resistance; Fold change ([2]; strain 11842, resistant virus IC50 to wild-type reference virus IC50 ratio, cut-off in brackets): 96 (1.5^b) |
| O=C(NCC1CCCCC1)c1nc(-c2ccccn2)nc(O)c1O [Compound 1, N-(cyclohexylmethyl)-5,6-dihydroxy-2-(pyridin-2-yl)pyrimidine-4-carboxamide] | 0.4 | – |
| C[C@@H](NC(=O)c1nc(-c2cc(Cl)ccn2)nc(O)c1O)C1CCCCC1 [Compound 26, (R)-2-(4-chloropyridin-2-yl)-N-(1-cyclohexylethyl)-5,6-dihydroxypyrimidine-4-carboxamide] | 0.3 | – |
